Source: ChEMBL document CHEMBL4828771, “Discovery and Development of a Potent, Selective, and Orally Bioavailable CHK1 Inhibitor Candidate: 5-((4-((3-Amino-3-methylbutyl)amino)-5-(trifluoromethyl)pyrimidin-2-yl)amino)picolinonitrile” (J Med Chem, 2021)
Active and inactive are the calls of the source. No cut-off for these calls is given here.

Legend:
MV4-11 [1] = experiment: Antitumor activity against human MV4-11 cells xenografted in mouse assessed as inhibition of tumor growth at 5 mg/kg, po dosed for 21 days measured twice every week relative to control; type: functional; conditions: MV4-11, po, 504 h, time 21 day, read-out: TGI
[2] = target: Calcium/calmodulin-dependent protein kinase type II subunit delta (Homo sapiens) (UniProt Q13557); experiment: Inhibition of wild type human CAMK2D (M1 to E329 residues) expressed in bacterial expression system assessed as protein activity at 0.5 uM relative to control; parameters: scale not given: the % may be the effect or the level left
Calcium/calmodulin-dependent protein kinase type II subunit delta (Homo sapiens), sequence (Q13557 whole entry, the tested form may be a part): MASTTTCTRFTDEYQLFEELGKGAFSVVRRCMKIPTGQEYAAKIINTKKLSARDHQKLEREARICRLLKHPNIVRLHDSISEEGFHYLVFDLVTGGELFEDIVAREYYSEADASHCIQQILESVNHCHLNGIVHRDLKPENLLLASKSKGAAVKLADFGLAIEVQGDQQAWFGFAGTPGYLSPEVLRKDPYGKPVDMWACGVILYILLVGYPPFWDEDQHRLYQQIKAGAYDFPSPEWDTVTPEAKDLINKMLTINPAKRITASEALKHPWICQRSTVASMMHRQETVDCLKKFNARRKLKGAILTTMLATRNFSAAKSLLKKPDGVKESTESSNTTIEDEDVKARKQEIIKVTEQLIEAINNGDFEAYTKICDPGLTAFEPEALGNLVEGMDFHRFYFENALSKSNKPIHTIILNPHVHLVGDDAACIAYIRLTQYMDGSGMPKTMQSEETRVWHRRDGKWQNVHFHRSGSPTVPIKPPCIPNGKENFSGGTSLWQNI

[3] = target: T1, Serine/threonine-protein kinase Chk1 (Homo sapiens, UniProt O14757); experiment: Inhibition of CHK1 (unknown origin) incubated for 1 hr in presence of ATP by HTRF assay
T1 sequence (O14757 whole entry): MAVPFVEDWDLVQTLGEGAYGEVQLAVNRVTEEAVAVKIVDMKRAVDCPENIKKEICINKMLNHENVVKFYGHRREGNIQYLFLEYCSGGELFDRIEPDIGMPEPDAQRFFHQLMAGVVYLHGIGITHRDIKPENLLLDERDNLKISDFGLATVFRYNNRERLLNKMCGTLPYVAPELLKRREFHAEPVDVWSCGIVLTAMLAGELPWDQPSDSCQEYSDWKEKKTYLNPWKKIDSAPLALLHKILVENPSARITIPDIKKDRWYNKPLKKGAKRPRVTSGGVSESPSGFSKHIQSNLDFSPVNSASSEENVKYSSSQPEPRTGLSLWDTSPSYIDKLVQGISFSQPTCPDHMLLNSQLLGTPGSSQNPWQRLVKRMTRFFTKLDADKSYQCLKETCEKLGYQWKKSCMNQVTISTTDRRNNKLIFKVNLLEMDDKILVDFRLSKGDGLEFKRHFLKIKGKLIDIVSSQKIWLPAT

[4] = Selectivity ratio of Antiproliferative activity against human HT-29 cells to Antiproliferative activity against human HT-29 cells in presence of gemcitabine; type: functional
MV4-11 [5] = experiment: Antiproliferation activity against human MV4-11 cells assessed as reduction in cell viability incubated for 72 hrs by MTS assay; type: functional, cell-based; conditions: MV4-11, 72 h
Z-138 = experiment: Antiproliferation activity against human Z138 cells assessed as reduction in cell viability incubated for 72 hrs by MTS assay; type: functional, cell-based; conditions: Z-138, 72 h
hERG (KCNH2) = hERG (KCNH2) (Homo sapiens, UniProt Q12809); experiment: Inhibition of human ERG expressed in HEK293 cells at 10 uM by patch-clamp technique relative to control; type: cell-based; conditions: HEK293 cells that express hERG
hERG (KCNH2), sequence (Q12809 whole entry): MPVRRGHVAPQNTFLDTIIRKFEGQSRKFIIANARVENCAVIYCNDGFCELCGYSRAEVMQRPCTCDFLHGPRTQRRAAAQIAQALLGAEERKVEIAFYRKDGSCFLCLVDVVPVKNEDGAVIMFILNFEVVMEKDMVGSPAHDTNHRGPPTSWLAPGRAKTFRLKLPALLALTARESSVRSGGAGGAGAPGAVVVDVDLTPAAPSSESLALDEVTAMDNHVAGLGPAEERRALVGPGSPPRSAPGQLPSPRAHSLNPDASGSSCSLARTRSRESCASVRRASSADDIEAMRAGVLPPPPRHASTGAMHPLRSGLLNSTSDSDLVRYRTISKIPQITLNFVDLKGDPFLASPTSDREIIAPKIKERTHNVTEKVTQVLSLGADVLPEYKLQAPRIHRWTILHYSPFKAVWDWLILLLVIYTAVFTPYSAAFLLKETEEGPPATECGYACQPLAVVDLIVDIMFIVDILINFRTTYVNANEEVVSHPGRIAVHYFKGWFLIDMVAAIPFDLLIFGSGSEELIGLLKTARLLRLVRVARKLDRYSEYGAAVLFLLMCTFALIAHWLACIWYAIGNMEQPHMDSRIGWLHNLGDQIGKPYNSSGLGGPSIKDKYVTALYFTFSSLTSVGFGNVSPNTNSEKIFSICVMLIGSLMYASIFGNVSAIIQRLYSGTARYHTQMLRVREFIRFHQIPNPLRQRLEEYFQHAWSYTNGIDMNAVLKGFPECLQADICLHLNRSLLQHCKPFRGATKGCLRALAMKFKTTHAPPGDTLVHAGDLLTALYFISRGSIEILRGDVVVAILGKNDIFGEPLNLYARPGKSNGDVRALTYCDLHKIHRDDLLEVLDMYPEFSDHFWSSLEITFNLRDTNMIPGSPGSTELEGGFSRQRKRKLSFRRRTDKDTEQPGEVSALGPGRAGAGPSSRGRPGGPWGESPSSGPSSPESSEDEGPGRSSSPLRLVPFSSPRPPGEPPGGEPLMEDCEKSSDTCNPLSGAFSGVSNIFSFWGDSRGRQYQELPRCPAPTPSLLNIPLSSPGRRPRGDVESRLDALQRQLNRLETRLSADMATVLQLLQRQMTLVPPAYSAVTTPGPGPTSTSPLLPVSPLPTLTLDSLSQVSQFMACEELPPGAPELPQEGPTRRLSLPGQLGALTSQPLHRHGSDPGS

[6] = Half life in ICR mouse at 20 mg/kg, po measured after 0.083 to 48 hrs by LC-MS/MS analysis; type: ADME, organism-based; conditions: in vivo, time 0.083-48 hrs
[7] = Tmax in ICR mouse at 20 mg/kg, po measured after 0.083 to 48 hrs by LC-MS/MS analysis; type: ADME, organism-based; conditions: in vivo, time 0.083-48 hrs
[8] = AUCt in ICR mouse at 20 mg/kg, po measured after 0.083 to 48 hrs by LC-MS/MS analysis; type: ADME, organism-based; parameters: route oral, dose 20 mg/kg, time 0.083-48 hrs; conditions: in vivo
[9] = AUC (0 to infinity) in ICR mouse at 20 mg/kg, po measured after 0.083 to 48 hrs by LC-MS/MS analysis; type: ADME, organism-based; parameters: route oral, time upper 48 hrs, time lower 0.083 hrs, dose 20 mg/kg; conditions: in vivo
[10] = MRT (0 to infinity) in ICR mouse at 20 mg/kg, po measured after 0.083 to 48 hrs by LC-MS/MS analysis; type: ADME, organism-based; conditions: in vivo, time 0.083-48 hrs
[11] = target: T2, Serine/threonine-protein kinase Chk1 (Homo sapiens) (UniProt O14757); experiment: Inhibition of wild type human CHK1 (M1 to G289 residue) expressed in bacterial expression system assessed as protein activity at 0.5 uM relative to control; parameters: scale not given: the % may be the effect or the level left
T2 sequence (whole entry): T1 sequence (O14757 whole entry)

[12] = target: Ribosomal protein S6 kinase alpha-3 (Homo sapiens) (UniProt P51812); experiment: Inhibition of wild type human RSK2 expressed in mammalian expression system assessed as protein activity at 0.5 uM relative to control; parameters: scale not given: the % may be the effect or the level left
Ribosomal protein S6 kinase alpha-3 (Homo sapiens), sequence (P51812 whole entry): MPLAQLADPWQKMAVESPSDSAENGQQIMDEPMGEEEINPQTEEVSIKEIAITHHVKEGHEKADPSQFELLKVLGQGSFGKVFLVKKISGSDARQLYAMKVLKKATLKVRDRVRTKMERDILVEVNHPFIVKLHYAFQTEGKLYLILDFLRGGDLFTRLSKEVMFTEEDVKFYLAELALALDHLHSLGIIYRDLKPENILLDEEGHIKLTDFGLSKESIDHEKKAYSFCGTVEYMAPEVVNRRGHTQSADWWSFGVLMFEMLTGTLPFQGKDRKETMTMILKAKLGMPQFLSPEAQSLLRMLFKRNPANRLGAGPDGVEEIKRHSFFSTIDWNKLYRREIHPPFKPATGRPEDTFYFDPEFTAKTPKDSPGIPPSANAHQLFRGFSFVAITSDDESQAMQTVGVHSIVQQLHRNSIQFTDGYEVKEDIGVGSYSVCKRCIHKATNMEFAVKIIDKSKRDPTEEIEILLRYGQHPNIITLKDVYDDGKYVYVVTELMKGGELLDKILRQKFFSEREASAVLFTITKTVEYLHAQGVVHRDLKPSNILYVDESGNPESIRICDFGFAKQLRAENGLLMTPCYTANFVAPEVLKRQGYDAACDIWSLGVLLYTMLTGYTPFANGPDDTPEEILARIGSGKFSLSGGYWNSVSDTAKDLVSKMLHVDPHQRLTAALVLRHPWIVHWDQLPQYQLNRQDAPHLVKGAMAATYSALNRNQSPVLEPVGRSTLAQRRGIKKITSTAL

[13] = target: Ribosomal protein S6 kinase alpha-2 (Homo sapiens) (UniProt Q15349); experiment: Inhibition of wild type human RSK3 expressed in bacterial expression system assessed as protein activity at 0.5 uM relative to control; parameters: scale not given: the % may be the effect or the level left
Ribosomal protein S6 kinase alpha-2 (Homo sapiens), sequence (Q15349 whole entry): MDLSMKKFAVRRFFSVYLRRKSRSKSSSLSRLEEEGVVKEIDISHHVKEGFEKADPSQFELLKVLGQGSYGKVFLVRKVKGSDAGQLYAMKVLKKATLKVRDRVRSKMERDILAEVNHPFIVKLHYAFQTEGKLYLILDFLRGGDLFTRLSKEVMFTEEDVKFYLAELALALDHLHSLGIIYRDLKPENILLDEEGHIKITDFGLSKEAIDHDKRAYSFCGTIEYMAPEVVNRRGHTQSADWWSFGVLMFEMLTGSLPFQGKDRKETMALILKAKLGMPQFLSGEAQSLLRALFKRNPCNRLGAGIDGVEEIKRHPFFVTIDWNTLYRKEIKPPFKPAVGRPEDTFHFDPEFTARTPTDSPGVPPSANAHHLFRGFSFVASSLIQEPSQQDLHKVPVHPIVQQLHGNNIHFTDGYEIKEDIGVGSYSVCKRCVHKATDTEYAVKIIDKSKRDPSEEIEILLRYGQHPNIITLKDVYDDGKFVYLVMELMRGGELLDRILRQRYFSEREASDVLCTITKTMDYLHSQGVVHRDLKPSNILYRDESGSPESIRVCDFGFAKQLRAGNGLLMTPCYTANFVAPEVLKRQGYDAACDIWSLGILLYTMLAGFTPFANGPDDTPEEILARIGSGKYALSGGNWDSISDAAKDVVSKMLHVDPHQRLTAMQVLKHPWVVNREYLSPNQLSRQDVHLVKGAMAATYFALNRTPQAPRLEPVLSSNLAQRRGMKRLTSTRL

MV4-11 [14] = experiment: Antitumor activity against human MV4-11 cells xenografted in mouse assessed as inhibition of tumor growth at 15 mg/kg, po dosed for 21 days measured twice every week relative to control; type: functional; conditions: MV4-11, po, 504 h, time 21 day, read-out: TGI
HT-29 [15] = experiment: Antiproliferative activity against human HT-29 cells incubated for 72 hrs by CCK8 assay; type: functional, cell-based
A549 = experiment: Antiproliferative activity against human A549 cells incubated for 72 hrs by CCK8 assay; type: functional, cell-based
HT-29 [16] = experiment: Antiproliferative activity against human HT-29 cells incubated for 72 hrs in presence of gemcitabine by CCK8 assay; type: functional, cell-based
RPMI-8226 = experiment: Antiproliferative activity against human RPMI-8226 cells incubated for 72 hrs in presence of gemcitabine by CCK8 assay; type: functional, cell-based
[17] = Selectivity ratio of Antiproliferative activity against human A549 cells to Antiproliferative activity against human A549 cells in presence of gemcitabine; type: functional
[18] = Selectivity ratio of Antiproliferative activity against human RPMI-8226 cells to Antiproliferative activity against human RPMI-8226 cells in presence of gemcitabine; type: functional
[19] = target: T2, Serine/threonine-protein kinase Chk1 (Homo sapiens); experiment: Inhibition of CHK1 in human MV4-11 cells assessed as increase in phosphorylation at S345 residue incubated for 2 hrs by Western blot analysis; type: cell-based
[20] = target: T2, Serine/threonine-protein kinase Chk1 (Homo sapiens); experiment: Inhibition of CHK1 in human HT-29 cells assessed as […] residue at 0.12 to 3.3 uM incubated for 12 hrs in presence of gemcitabine by Western blot analysis; type: cell-based; conditions: dose 0.12-3.3 µM
HT-29 [21] = experiment: Induction of gamma-H2A.X in human HT-29 cells at 0.12 to 3.3 uM incubated for 12 hrs in presence of gemcitabine by Western blot analysis; type: functional, cell-based; conditions: dose 0.12-3.3 µM
HT-29 [22] = experiment: Antitumor activity against human HT-29 cells xenografted in mouse assessed as reduction in tumor growth by measuring T/C ratio at 30 mg/kg, po dosed 5 days/week for 22 days measured twice every week; type: functional; conditions: time 22 day
Mus musculus [23] = experiment: Downregulation of S296 phosphorylation in tumor of mouse xenografted with human HT-29 cells at 30 mg/kg, po dosed 5 days/week for 22 days by Western blot analysis; type: functional, organism-based; conditions: time 22.0 day
Mus musculus [24] = experiment: Induction of S345 phosphorylation in tumor of mouse xenografted with human HT-29 cells at 30 mg/kg, po dosed 5 days/week for 22 days by Western blot analysis; type: functional, organism-based; conditions: time 22.0 day
Mus musculus [25] = experiment: Downregulation of S296 phosphorylation in tumor of mouse xenografted with human HT-29 cells at 30 mg/kg, po dosed 5 days/week for 22 days cotreated with gemcitabine by Western blot analysis; type: functional, organism-based; conditions: time 22.0 day
Mus musculus [26] = experiment: Induction of S296 phosphorylation in tumor of mouse xenografted with human HT-29 cells at 30 mg/kg, po dosed 5 days/week for 22 days cotreated with gemcitabine by Western blot analysis; type: functional, organism-based; conditions: time 22.0 day
MV4-11 [27] = experiment: Antitumor activity against human MV4-11 cells xenografted in po dosed mouse assessed as inhibition of tumor growth administered for 21 days measured twice every week relative to control; type: functional, organism-based; conditions: time 21.0 day

CC(C)(N)CCNc1nc(Nc2ccc(C#N)nc2)ncc1C(F)(F)F
inhibition in vivo at 5 mg/kg (MV4-11 [1]): 51.6% | Activity [2]: 19% | IC50 [3]: 16.1 nM | Ratio [4]: 100 | IC50 (MV4-11 [5]): 140 nM | IC50 (Z-138): 3280 nM | inhibition at 10 µM (hERG (KCNH2)): 35.5% | half-life [6]: 10.8 h | Tmax [7]: 4 h | AUC(0-t) [8]: 17700 ng·h/mL | AUC(0-inf) [9]: 22700 ng·h/mL | MRT inf [10]: 14.7 h | Activity [11]: 4% | Activity [12]: 13% | Activity [13]: 14% | inhibition in vivo at 15 mg/kg (MV4-11 [14]): 95.5% | Activity (HT-29 [15]): Active | Activity (A549): Active | Activity (HT-29 [16]): Active | Activity (RPMI-8226): Active | Ratio [17]: 100 | Ratio [18]: 100 | Activity [19]: Dose-Dependent Effect | Activity [20]: Active | Activity (HT-29 [21]): Active | T/C (HT-29 [22]): 69.05% | Activity (Mus musculus [23]): Active | Activity (Mus musculus [24]): Active | Activity (Mus musculus [25]): Active | Activity (Mus musculus [26]): Active | Activity (MV4-11 [27]): Dose-Dependent Effect
